Reference: patent US5891916A, “Aromatic hydroxamix acid compounds, their production and use” (Takeda Chemical Industries, Ltd., priority 1995, dated 1999)

Legend:
[1] = tested on: rat mixed cerebral cell culture; test: Neutralizing effect on lipopolysaccharide (LPS)-induced cytotoxicity in a rat mixed cerebral cell culture system (LIC assay); format: cell-based; settings: neonatal rat mixed cerebral cells, 4 to 5 days incubation, MTT, concentration giving 50% recovery rate, read-out: ED50 value
Description: Neutralizing effect on lipopolysaccharide (LPS)--induced cytotoxicity in a rat mixed cerebral cell culture system (LIC assay)
LPS, a substance known to activate glial cells (astrocytes, microglia), was added to a rat mixed cerebral cell culture system and the compounds which would neutralize the cytotoxicity induced by LPS were screened by the following method.
(1) Neonatal rat mixed cerebral cell culture
From neonatal Crj:CD (SD) rats (1-3 day old, Charles-River Japan, Ltd), the brains were isolated and placed in ice-cooled D-MEM/10% FCS (Dulbecco's cell culture minimal essential medium supplemented with 10% of fetal calf serum, 100 units/ml of penicillin and 100 gg/ml of streptomycin). Then, mixed cerebral cell culture were treated in the following steps. Incidentally stating, ice-cooled D-MEM/10%FCS was used as the medium.
1. The cerebrum was separated from the enucleated brain and the meninges was removed under a stereoscopic microscope.
2. The cerebrums were placed in a nylon-mesh (100-200 μm) bag for filtration with the aid of a rubber policeman.
3. Using ice-cooled D-MEM/10% FCS, the cells were washed three times (1,000 rpm, 8 min.). Then, this cell suspension was subjected to filtration through a cell strainer (40 μm mesh, Falcon 2340) and the number of viable cells was counted by the trypan blue method.
4. The cells were seeded in a tissue-culture flask (96-well microtiter plate, Nunc) at a cell density of 1×10^5 cells/100 μl/well).
5. One week later, 100 μl/well of D-MEM/10% FCS was added.
6. The plate was further incubated for about 1 to 2 weeks and the neutralizing activity of the test compounds was evaluated by the following method.
(2) Evaluation of neutralizing activity
1. Following the rat mixed cerebral cell culture in (1) above (after 2-3 weeks of incubation), the medium was discarded from the respective wells of the 96-well microtiter plate, and 50 μl/well of fresh D-MEM/2% FCS was added.
2. A test sample and LPS (manufactured by Difco Inc., E. coli 011: B4, Bact) of an adequate concentration, 25 μl per well, were respectively added. D-MEM/2% FCS was employed as the medium.
As the test sample, each of the compounds shown in Table 21 was dissolved in DMSO at a concentration of 10^-2 M and the solution was diluted with D-MEM/2% FCS, which was used for assay.
3. After a suitable period (usually 4 to 5 days) of incubation, the degree of cytotoxic effect was assessed by the microscopic observation, and MTT method.
(3) MTT [3-(4,5-dimethylthiazol-2-yl)-2,5-diphenyltetrazolium bromide] method
MTT dissolved in a phosphate-buffered physiological saline solution (5 mg/ml, manufactured by Sigma Chemical Co.,) was added, 10 μl per well. After 4 to 6 hours of incubation (37° C., under 10% carbon dioxide gas phase), 100 μl/well of 0.01N HCl containing 10% SDS was added to thereby dissolve the formed formazan. After complete dissolution, the absorbance (wave-length 540-590 nm) was measure for each well.
The ED50 values were determined by calculating the recovery rates by means of the following equation and plotting the concentrations of compounds giving a recovery rate of 50% on graph paper.
Recovery rate (%)=(C-B)×100/(A-B)
[A: the absorbance at 550 nm of the control well to which only the medium had been was added
B: the absorbance at 550 nm of the well to which LPS had been added
C: the absorbance at 550 nm of the well to which both LPS and the test compound had been added]

[2] = tested on: rats pretreated with LPS infused into the unilateral striatum; test: Inhibitory effect on the apomorphine-induced circling behavior in rats pretreated with LPS infused into the unilateral striatum; format: in vivo, rat; settings: male Wistar rats; i.p. 0.2 ml per 100 g, 30 minutes before LPS infusion and 3 and 24 hours after; apomorphine 1 mg/kg s.c. 7-8 days postoperatively; 30-minute count
Description: Inhibitory effect on the apomorphine -induced circling behavior in rats pretreated with LPS infused into the unilateral striatum Male Wistar rats (8-9 week old) weighing 250-280 g at the operation for LPS infusion were submitted to this experiment.. Throughout the experimental period, the animals were group-fed in a vivarium controlled at 24±1° C. and 55±1% R.H., with a light-dark cycle of 12 hr (7:00-19:00 ON) and free access to food (Clea Japan, Inc., CE-2 solid pellets) and water (tap water). Under pentobarbital (50 mg/kg, i.p.) anesthesia, the rat's head was immobilized in David Kopf's brain stereotaxic apparatus for small animal use and with reference to Pellegrino & Cushman's brain atlas, a 30 Gauge stainless steel needle was indwelled in the unilateral striatum (A8.2, L2.8, H4.3). The infusion volume of LPS was set at 5 μg. LPS was dissolved in 1 μl of a phosphate-buffered physiological saline solution (PBS, pH 7.2) and the solution was infused gradually at a speed of 0.2 μl/min. The infusion needle was kept in position till 3 minutes following infusion and withdrawn only after sufficient diffusion of the drug solution had taken place. After 7-8 days postoperatively, 1 mg/kg of apomorphine was administered subcutaneously and the number of induced circling behavior during a 30-minute period immediately following administration were determined with an automatic counter. […]

Structure (SMILES) | EC50 [1] [nM] | number of induced circling behavior relative to control group [2] [%]
CCC(=O)ONC(=O)CCCCCC(C#N)(c1ccccc1)c1ccccc1 [Compound 13, O-Propionyl-7-cyano-7,7-diphenylheptanohydroxamic acid] | 10 | 
N#CC(CCCCCC(=O)NO)(c1ccccc1)c1ccccc1 [Compound 1, 7-Cyano-7,7-diphenylheptanohydroxamic acid] | 10 | 41
N#CC(CCCCCC(=O)NO)(c1ccccc1)c1ccc(F)cc1 (stereo not drawn) [Compound 3, 7-cyano-7-(4-fluorophenyl)-7-phenylheptanohydroxamic acid] | 10 | 
COc1ccccc1C(C#N)(CCCCCC(=O)NO)c1ccccc1 (stereo not drawn) [Compound 4, 7-cyano-7-(2-methoxyphenyl)-7-phenylheptanohydroxamic acid] | 10 | 
N#CC(CCCCCC(=O)NOC(=O)c1ccccc1)(c1ccccc1)c1ccc2ccccc2n1 (stereo not drawn) [Compound 21, O-benzoyl-7-cyano-7-phenyl-7-(2-quinolyl)heptanohydroxamic acid] | 10 | 
N#CC(CCCCCC(=O)NO)(c1ccccc1)c1ccc2ccccc2n1 (stereo not drawn) [Compound 12, 7-cyano-7-phenyl-7-(2-quinolyl)heptanohydroxamic acid] | 10 | 
N#CC(CCCCCC(=O)NO)(c1ccccc1)c1nc2ccccc2s1 (stereo not drawn) [Compound 11, 7-(2-benzothiazolyl)-7-cyano-7-phenylheptanohydroxamic acid] | 10 | 
CCC(=O)ONC(=O)CCCCCC(C#N)(c1ccccc1)c1ccc2ccccc2n1 (stereo not drawn) [Compound 20, O-propionyl-7-cyano-7-phenyl-7-(2-quinolyl)heptanohydroxamic acid] | 10 | 
